Measurements reported in publication PMC7824787, “Design, Synthesis and In Vitro Investigation of Novel Basic Celastrol Carboxamides as Bio-Inspired Leishmanicidal Agents Endowed with Inhibitory Activity against Leishmania Hsp90” (Biomolecules, 2021).
Like-named read-outs stand apart in the source and are kept apart here.

Assays:
LbHsp90 = LbHsp90 (Leishmania braziliensis, UniProt A4HL70); assay: In vitro inhibition of the ATPase activity of LbHsp90 (Malachite Green Phosphate Assay); type: biochemical; settings: 7 μM LbHsp90, 27 °C, 60 min
Excerpt: To evaluate in vitro the modulatory activity of CE, PR and CE caboxamides, a full-length recombinant Hsp90 from L. braziliensis (LbHsp90) was produced in E. coli BL21 DE3 harboring the pET28a_LbHsp90 coding for the C-terminal His-tagged target chaperone (genbank number: XP_001567804.1, full sequence is reported in Appendix B). Pratically, the plasmid pET28a_LbHsp90, kindly donated by professor J.C. Borges, was transformed in E. coli BL21 DE3 using the TransformAid Bacterial Transformation Kit (Thermo Fisher, Waltham, MA, USA). Subsequently, the obtained transformants were grown overnight in LB medium containing 30 μg mL^−1 kanamycin (LBkan30) and then inoculated in 1 L SB kan30 medium (Yeast extract 30 g L^−1, Tryptone 20 g L^−1, NaCl 10 g L^−1) at 37 °C and 220 rpm. When the OD600 reached 0.5–1, gene expression was induced by the addition of 2 mL of 1 M IPTG solution in water and the culture was shifted at 30 °C for 24 h. After cell harvesting by centrifugation (5000 rpm for 30 min), the cell pellet was resuspended in 20 mL of wash buffer (20 mM HEPES buffer, pH 7.0, 500 mM NaCl, 20 mM imidazole) and recombinant E. coli BL21DE3 cells were disrupted by ultrasonication. LbHsp90 was subsequently purified using a Nickel Sepharose 6 Fast Flow agarose resin (Ni-NTA) (GE Healthcare, Milan, Italy) as follows. Soluble protein fraction was separated from cell debris by centrifugation (10,000 rpm for 30min) after cell ultrasonication, and clear lysates were incubated with the Ni-NTA resin for 90 min at 4 °C under mild shaking and loaded onto a glass column (10 × 110 mm). The resin was then washed with 10mL of wash buffer and His-tagged LbHsp90 was eluted using a 3 step gradient (10 mL washing buffer containing 100, 200, and 300 mM imidazole, respectively) and dialyzed against 20 mM HEPES buffer (20 mM, pH 7.5), at 4 °C overnight. The protein content was measured using the Bio-Rad Protein Assay (Hercules, CA, USA) according to the Bradford method and the protein purity was verified by SDS-PAGE analysis (10% T, 2.6% C). It is worth noting that to avoid interferences with the assays described below, proteins were purified and conserved in HEPES buffer (20 mM, pH 7.5) in place of the standard PB-buffer. Reported data are the mean of two experiments run in duplicate.
Modulatory activity toward the ATPase cycle of LbHsp90 was determined using a Malachite Green Phosphate Assay Kit (Catalog Number MAK307, Sigma-Aldrich®, St. Louis, MO, USA). Analyses were run in a 96-well plate directly following the quantitative formation of a green complex between Malachite Green, molybdate, and free orthophosphate (Pi) produced by ATP hydrolysis catalyzed by the chaperone. Color formation from the reaction was measured on a plate reader at 620 nm. Briefly, the IC50 of CE and its derivatives were extrapolated from a set of dose-response curves obtained by calculating the amount of Pi produced by LbHsp90 in the presence of different compounds concentrations.
Reactions were run in HEPES buffer (20 mM, pH 7.5) containing 3 mM MgCl2 and 50 mM KCl in the presence of different compounds concentrations ([…]), LbHsp90 (7 μM) and ATP (25 mM) at 27 °C for 60 min. OD620 was measured 30 min after Malachite Green reactants addition.
LbHsp90 native activity was measured by conducting the reaction in the presence of just LbHsp90 and ATP and extrapolating the concentration of Pi obtained.
Three sets of control experiments, (1) ATP background hydrolysis, (2) compounds-related interferences and (3) protein-related background coloration, were run as follow: • (1) ATP (25 mM) incubated at 27 °C for 60 min • (2) Compounds (different concentrations) incubated with ATP (25 mM) at 27 °C for 60 min • (3) LbHsp90 (7 μM) at 27 °C for 60 min
The in vitro performances of CE, PR and the carboxamides 1–11 (Figure 4) as potential inhibitors of the Leishmania braziliensis Hsp90 were investigated using Sigma-Aldrich® Malachite Green Phosphate Assay Kit. […]

BMDM = assay: Cytotoxicity on BMDM (MTT); type: cell-based, mouse; settings: Mus musculus, BMDM; 72 h, MTT; read-out: Healthy Cell Lines IC50, BMDM
Protocol: (§1) Cytotoxicity was evaluated on human microvascular endothelial cells (HMEC-1, provided by the Centers for Disease Control, Atlanta, GA, USA), on immortalized mouse C57Bl/6 bone marrow derived macrophages (BMDM) from wild type lineage (generated in the laboratories of Drs. Douglas Golenbock and Kate Fitzgerald, University of Massachusetts, Worcester, MA, USA) and on a human acute monocytic leukaemia cell line (THP-1).
(§2) HMEC-1 were maintained in MCDB 131 medium (Invitrogen, Milan, Italy) supplemented with 10% fetal calf serum (HyClone), 10 ng/mL of epidermal growth factor, 1 μg/mL of hydrocortisone, 2 mM glutamine and 20 mM HEPES buffer, at 37 °C in 5% CO2. BMDM were maintained in DMEM (Euroclone) medium supplemented with 10% fetal bovine serum (HyClone, Celbio, Milan, Italy), 2 mM glutamine, and 25 mM of HEPES buffer solution (Euroclone). THP-1 were maintained in RPMI supplemented with 10% heat-inactivated FCS, 50 µM 2-mercaptoethanol, 10 µM sodium pyruvate, 20 mM HEPES, and 2 mM glutamine. In order to achieve differentiation into macrophages, cells were treated with 10 ng/mL phorbol myristate acetate (PMA) for 72 h.
(§3) For the cytotoxicity assay, cells were seeded in 96 well flat bottom tissue culture clusters (Costar, New York, NY, USA) at the following concentrations: HMEC 10^5 cell/mL, BMDM at 10^6 cell/mL, THP1 at 5 × 10^5 cell/mL. After 24 h, cells were treated with serial dilutions of test compounds in a final volume of 200 µL/well. Cell proliferation was evaluated after 72 h using the MTT assay.
(§4) The absorbances were measured with a microplate spectrophotometer (Synergy 4-Biotek) at a test wavelength of 550 nm and a reference wavelength of 650 nm. The results are expressed as IC50 as the concentration inhibiting 50% of cell growth. Each IC50 value is the mean and standard deviation of at least three separate experiments performed in duplicate.

HMEC-1 = assay: Cytotoxicity on HMEC-1 (MTT); type: cell-based, human; settings: Homo sapiens, read-out: Healthy Cell Lines IC50, HMEC-1
Protocol: as §1, §2, §3, §4

LbHsp90, sequence (A4HL70 entry or part of it): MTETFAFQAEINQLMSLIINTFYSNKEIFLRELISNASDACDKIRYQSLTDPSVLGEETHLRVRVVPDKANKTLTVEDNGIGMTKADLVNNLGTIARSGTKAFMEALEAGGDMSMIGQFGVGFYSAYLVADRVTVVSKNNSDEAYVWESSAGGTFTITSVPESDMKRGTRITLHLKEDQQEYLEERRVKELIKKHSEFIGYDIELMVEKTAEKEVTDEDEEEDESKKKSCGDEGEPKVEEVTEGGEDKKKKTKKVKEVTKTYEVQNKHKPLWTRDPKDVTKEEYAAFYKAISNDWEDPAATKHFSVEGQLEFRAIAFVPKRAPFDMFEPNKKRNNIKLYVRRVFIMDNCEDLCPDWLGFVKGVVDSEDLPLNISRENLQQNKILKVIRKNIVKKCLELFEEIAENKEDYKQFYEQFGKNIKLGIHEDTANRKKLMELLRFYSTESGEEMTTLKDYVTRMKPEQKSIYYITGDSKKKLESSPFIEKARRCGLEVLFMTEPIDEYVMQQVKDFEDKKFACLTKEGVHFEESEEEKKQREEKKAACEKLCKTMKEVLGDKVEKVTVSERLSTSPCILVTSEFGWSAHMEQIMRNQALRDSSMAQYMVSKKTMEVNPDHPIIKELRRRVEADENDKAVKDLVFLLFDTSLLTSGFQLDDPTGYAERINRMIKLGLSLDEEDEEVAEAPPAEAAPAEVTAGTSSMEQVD

SMILES | IC50 (LbHsp90) [µM] | IC50 (BMDM) [µM] | IC50 (HMEC-1; HMEC-1, 72 h) [µM] | IC50 (HMEC-1; HMEC-1, 72 h, MTT) [µM]
CC1=C(O)C(=O)C=C2C1=CC=C1[C@@]2(C)CC[C@@]2(C)[C@@H]3C[C@](C)(C(=O)O)CC[C@]3(C)CC[C@]12C [CE, celastrol] | 201 ± 10 | 1.76 ± 0.43 | 0.38 ± 0.08 | 
CC1=C(O)C(=O)C=C2C1=CC=C1[C@@]2(C)CC[C@@]2(C)[C@@H]3C[C@](C)(C(=O)NCC45CCCN4CCC5)CC[C@]3(C)CC[C@]12C [compound 5, (2R,4aS,6aS,12bR,14aS,14bR)-N-((hexahydro-1H-pyrrolizin-7a-yl)methyl)-10-hydroxy-2,4a,6a,9,12b,14a-hexamethyl-11-oxo-1,2,3,4,4a,5,6,6a,11,12b,13,14,14a,14b-tetradecahydropicene-2-carboxamide] | 20 ± 2 | 2.68 ± 0.81 |  | 0.12 ± 0.03
CC1=C(O)C(=O)C=C2C1=CC=C1[C@@]2(C)CC[C@@]2(C)[C@@H]3C[C@](C)(C(=O)NCCN4CCCCC4)CC[C@]3(C)CC[C@]12C [compound 1, (2R,4aS,6aS,12bR,14aS,14bR)-10-hydroxy-2,4a,6a,9,12b,14a-hexamethyl-11-oxo-N-(2-(piperidin-1-yl)ethyl)-1,2,3,4,4a,5,6,6a,11,12b,13,14,14a,14b-tetradecahydropicene-2-carboxamide] | 83 ± 2 | 3.61 ± 0.38 |  | 0.51 ± 0.08
CC1=C(O)C(=O)C=C2C1=CC=C1[C@@]2(C)CC[C@@]2(C)[C@@H]3C[C@](C)(C(=O)NCCN4CCCC4)CC[C@]3(C)CC[C@]12C [compound 3, (2R,4aS,6aS,12bR,14aS,14bR)-10-hydroxy-2,4a,6a,9,12b,14a-hexamethyl-11-oxo-N-(2-(pyrrolidin-1-yl)ethyl)-1,2,3,4,4a,5,6,6a,11,12b,13,14,14a,14b-tetradecahydropicene-2-carboxamide] | 81 ± 1 | 4.53 ± 0.05 |  | 0.53 ± 0.17

Now from value to compound, other results behind:

IC50 (LbHsp90) [µM] | SMILES | IC50 (BMDM) [µM] | IC50 (HMEC-1; HMEC-1, 72 h) [µM] | IC50 (HMEC-1; HMEC-1, 72 h, MTT) [µM]
> 150 | CC1=C(O)C(=O)C=C2C1=CC=C1[C@@]2(C)CC[C@@]2(C)[C@@H]3C[C@](C)(C(=O)NCCSS(C)(=O)=O)CC[C@]3(C)CC[C@]12C [compound 9, S-(2-((2R,4aS,6aS,12bR,14aS,14bR)-10-hydroxy-2,4a,6a,9,12b,14a-hexamethyl-11-oxo-1,2,3,4,4a,5,6,6a,11,12b,13,14,14a,14b-tetradecahydropicene-2-carboxamido)ethyl) methanesulfonothioate] | 13 ± 2.48 |  | 4.07 ± 0.05
65 ± 4 | CC1=C(O)C(=O)C=C2C1=CC=C1[C@@]2(C)CC[C@@]2(C)[C@@H]3C[C@](C)(C(=O)NCCNc4ccnc5cc(Cl)ccc45)CC[C@]3(C)CC[C@]12C [compound 6, (2R,4aS,6aS,12bR,14aS,14bR)-N-(2-((7-chloroquinolin-4-yl)amino)ethyl)-10-hydroxy-2,4a,6a,9,12b,14a-hexamethyl-11-oxo-1,2,3,4,4a,5,6,6a,11,12b,13,14,14a,14b-tetradecahydropicene-2-carboxamide] | 2.15 ± 0.02 |  | 0.4 ± 0.03
